Reference: ChEMBL document CHEMBL1139487, “Discovery of corticotropin releasing factor 2 receptor selective sauvagine analogues for treatment of skeletal muscle atrophy” (J Med Chem, 2005)

Tests used:
[1] = biological target: T1, Corticotropin-releasing factor receptor 1 (Mus musculus, UniProt P35347); assay: In vitro effective concentration for mouse corticotropin releasing factor 1 receptor
T1 sequence (P35347 whole entry): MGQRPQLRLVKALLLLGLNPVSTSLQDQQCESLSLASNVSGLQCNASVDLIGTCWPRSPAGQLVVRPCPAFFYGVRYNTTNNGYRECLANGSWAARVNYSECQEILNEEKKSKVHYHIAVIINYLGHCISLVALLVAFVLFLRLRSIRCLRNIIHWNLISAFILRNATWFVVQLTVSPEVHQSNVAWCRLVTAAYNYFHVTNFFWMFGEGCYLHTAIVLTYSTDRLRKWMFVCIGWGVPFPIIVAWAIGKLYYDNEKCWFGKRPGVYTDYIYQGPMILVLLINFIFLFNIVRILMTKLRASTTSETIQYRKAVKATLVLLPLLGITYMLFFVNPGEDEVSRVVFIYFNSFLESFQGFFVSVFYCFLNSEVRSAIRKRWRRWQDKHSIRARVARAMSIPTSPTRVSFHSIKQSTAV

[2] = biological target: Corticotropin-releasing factor receptor 2 (Mus musculus, UniProt Q60748); assay: In vitro effective concentration for mouse corticotropin releasing factor 2 receptor
Corticotropin-releasing factor receptor 2, sequence (Q60748 whole entry): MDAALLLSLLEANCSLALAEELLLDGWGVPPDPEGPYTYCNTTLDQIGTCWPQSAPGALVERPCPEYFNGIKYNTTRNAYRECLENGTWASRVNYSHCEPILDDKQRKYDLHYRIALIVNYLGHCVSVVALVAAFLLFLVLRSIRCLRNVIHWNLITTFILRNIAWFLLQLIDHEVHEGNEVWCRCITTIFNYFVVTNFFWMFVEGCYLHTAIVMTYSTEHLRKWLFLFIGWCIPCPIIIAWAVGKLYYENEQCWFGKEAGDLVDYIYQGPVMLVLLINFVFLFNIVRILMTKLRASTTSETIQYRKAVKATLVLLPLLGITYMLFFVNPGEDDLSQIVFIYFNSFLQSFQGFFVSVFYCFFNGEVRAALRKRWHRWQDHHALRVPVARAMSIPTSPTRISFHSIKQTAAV

[3] = biological target: T2, Corticotropin-releasing factor receptor 1 (Mus musculus) (UniProt P35347); assay: In vitro agonistic activity against mouse corticotropin releasing factor 1 receptor; format: functional
T2 sequence (whole entry): T1 sequence (P35347 whole entry)

[4] = biological target: Corticotropin-releasing factor receptor 2 (Mus musculus) (UniProt Q60748); assay: In vitro agonistic activity against mouse corticotropin releasing factor 2 receptor; format: functional
Corticotropin-releasing factor receptor 2 (Mus musculus), sequence (Q60748 whole entry): as above

[5] = species: Mus musculus; assay: Selectivity ratio of EC50s for mouse corticotropin releasing factor receptors 1 and 2

Row | Structure (SMILES) | EC50 [1] [nM] | EC50 [2] [nM] | Emax [3] [%] | Emax [4] [%] | Selectivity [5]
1 | CC[C@H](C)[C@H](NC(=O)[C@@H](NC(=O)[C@H](CC(=O)O)NC(=O)[C@H](CC(C)C)NC(=O)[C@H](CC(C)C)NC(=O)[C@H](CC(C)C)NC(=O)[C@H](CCCN=C(N)N)NC(=O)[C@H](CC(N)=O)NC(=O)[C@H](CC(N)=O)NC(=O)[C@H](C)NC(=O)[C@H](C)NC(=O)[C@H](CCC(N)=O)NC(=O)[C@H](CCC(N)=O)NC(=O)[C@H](CCCCN)NC(=O)[C@H](CCC(=O)O)NC(=O)[C@H](CCCCN)NC(=O)[C@H](CCC(=O)O)NC(=O)[C@H](CCC(N)=O)NC(=O)[C@H](CCCCN)NC(=O)[C@H](CCC(=O)O)NC(=O)[C@@H](NC(=O)[C@H](CCC(=O)O)NC(=O)[C@@H](NC(=O)[C@H](CCSC)NC(=O)[C@H](CCCCN)NC(=O)[C@H](CCCN=C(N)N)NC(=O)[C@H](CC(C)C)NC(=O)[C@H](CC(C)C)NC(=O)[C@H](Cc1ccccc1)NC(=O)[C@@H](NC(=O)[C@@H]1CCCN1C(=O)[C@H](CC(C)C)NC(=O)[C@H](CC(=O)O)NC(=O)[C@@H](NC(=O)[C@H](CO)NC(=O)[C@@H](NC(=O)[C@@H]1CCCN1C(=O)[C@@H]1CCCN1C(=O)CNC(=O)[C@@H]1CCC(=O)N1)[C@@H](C)CC)[C@@H](C)CC)[C@@H](C)O)[C@@H](C)CC)[C@@H](C)CC)[C@@H](C)O)C(=O)O | 943 | 19.2 | 64 | 87 | 49
2 | CC[C@H](C)[C@H](NC(=O)[C@@H](NC(=O)[C@H](CC(=O)O)NC(=O)[C@H](CC(C)C)NC(=O)[C@H](CC(C)C)NC(=O)[C@H](CC(C)C)NC(=O)[C@H](CCCN=C(N)N)NC(=O)[C@H](CC(N)=O)NC(=O)[C@H](CC(N)=O)NC(=O)[C@H](C)NC(=O)[C@H](C)NC(=O)[C@H](CCC(N)=O)NC(=O)[C@H](CCC(N)=O)NC(=O)[C@H](CCCCN)NC(=O)[C@H](CCC(=O)O)NC(=O)[C@H](CCCCN)NC(=O)[C@H](CCC(=O)O)NC(=O)[C@H](CCC(N)=O)NC(=O)[C@H](CCCCN)NC(=O)[C@H](CCC(=O)O)NC(=O)[C@@H](NC(=O)[C@H](CCC(=O)O)NC(=O)[C@@H](NC(=O)[C@H](CCSC)NC(=O)[C@H](CCCCN)NC(=O)[C@H](CCCN=C(N)N)NC(=O)[C@H](CC(C)C)NC(=O)[C@H](CC(C)C)NC(=O)[C@H](Cc1c[nH]c2ccccc12)NC(=O)[C@H](Cc1c[nH]cn1)NC(=O)[C@@H]1CCCN1C(=O)[C@H](CC(C)C)NC(=O)[C@H](CC(=O)O)NC(=O)[C@@H](NC(=O)[C@H](CO)NC(=O)[C@@H](NC(=O)[C@@H]1CCCN1C(=O)[C@@H]1CCCN1C(=O)CNC(=O)[C@@H]1CCC(=O)N1)[C@@H](C)CC)[C@@H](C)CC)[C@@H](C)CC)[C@@H](C)CC)[C@@H](C)O)C(=O)O | 408 | 25.1 | 100 | 100 | 16
3 | CC[C@H](C)[C@H](NC(=O)[C@@H](NC(=O)[C@H](CC(=O)O)NC(=O)[C@H](CC(C)C)NC(=O)[C@H](CC(C)C)NC(=O)[C@H](CC(C)C)NC(=O)[C@H](CCCN=C(N)N)NC(=O)[C@H](CC(N)=O)NC(=O)[C@H](CC(N)=O)NC(=O)[C@H](C)NC(=O)[C@H](C)NC(=O)[C@H](CCC(N)=O)NC(=O)[C@H](CCC(N)=O)NC(=O)[C@H](CCCCN)NC(=O)[C@H](CCC(=O)O)NC(=O)[C@H](CCCCN)NC(=O)[C@H](CCC(=O)O)NC(=O)[C@H](CCC(N)=O)NC(=O)[C@H](CCCCN)NC(=O)[C@H](CCC(=O)O)NC(=O)[C@@H](NC(=O)[C@H](CCC(=O)O)NC(=O)[C@@H](NC(=O)[C@H](CCSC)NC(=O)[C@H](CCCCN)NC(=O)[C@H](CCCN=C(N)N)NC(=O)[C@H](CC(C)C)NC(=O)[C@H](CC(C)C)NC(=O)[C@H](Cc1ccc(O)cc1)NC(=O)[C@H](CC(N)=O)NC(=O)[C@@H]1CCCN1C(=O)[C@H](CC(C)C)NC(=O)[C@H](CC(=O)O)NC(=O)[C@@H](NC(=O)[C@H](CO)NC(=O)[C@@H](NC(=O)[C@@H]1CCCN1C(=O)[C@@H]1CCCN1C(=O)CNC(=O)[C@@H]1CCC(=O)N1)[C@@H](C)CC)[C@@H](C)CC)[C@@H](C)CC)[C@@H](C)CC)[C@@H](C)O)C(=O)O | 220 | 21.6 | 100 | 93 | 10
4 | CC[C@H](C)[C@H](NC(=O)[C@@H](NC(=O)[C@H](CC(=O)O)NC(=O)[C@H](CC(C)C)NC(=O)[C@H](CC(C)C)NC(=O)[C@H](CC(C)C)NC(=O)[C@H](CCCN=C(N)N)NC(=O)[C@H](CC(N)=O)NC(=O)[C@H](CC(N)=O)NC(=O)[C@H](C)NC(=O)[C@H](C)NC(=O)[C@H](CCC(N)=O)NC(=O)[C@H](CCC(N)=O)NC(=O)[C@H](CCCCN)NC(=O)[C@H](CCC(=O)O)NC(=O)[C@H](CCCCN)NC(=O)[C@H](CCC(=O)O)NC(=O)[C@H](CCC(N)=O)NC(=O)[C@H](CCCCN)NC(=O)[C@H](CCC(=O)O)NC(=O)[C@@H](NC(=O)[C@H](CCC(=O)O)NC(=O)[C@@H](NC(=O)[C@H](CCSC)NC(=O)[C@H](CCCCN)NC(=O)[C@H](CCCN=C(N)N)NC(=O)[C@H](CC(C)C)NC(=O)[C@H](CC(C)C)NC(=O)[C@H](Cc1ccccc1)NC(=O)[C@H](CCC(N)=O)NC(=O)[C@@H]1CCCN1C(=O)[C@H](CC(C)C)NC(=O)[C@H](CC(=O)O)NC(=O)[C@@H](NC(=O)[C@H](CO)NC(=O)[C@@H](NC(=O)[C@@H]1CCCN1C(=O)[C@@H]1CCCN1C(=O)CNC(=O)[C@@H]1CCC(=O)N1)[C@@H](C)CC)[C@@H](C)CC)[C@@H](C)CC)[C@@H](C)CC)[C@@H](C)O)C(=O)O | 236 | 8.5 | 100 | 100 | 28
5 | CC[C@H](C)[C@H](NC(=O)[C@@H](NC(=O)[C@H](CC(=O)O)NC(=O)[C@H](CC(C)C)NC(=O)[C@H](CC(C)C)NC(=O)[C@H](CC(C)C)NC(=O)[C@H](CCCN=C(N)N)NC(=O)[C@H](CC(N)=O)NC(=O)[C@H](CC(N)=O)NC(=O)[C@H](C)NC(=O)[C@H](C)NC(=O)[C@H](CCC(N)=O)NC(=O)[C@H](CCC(N)=O)NC(=O)[C@H](CCCCN)NC(=O)[C@H](CCC(=O)O)NC(=O)[C@H](CCCCN)NC(=O)[C@H](CCC(=O)O)NC(=O)[C@H](CCC(N)=O)NC(=O)[C@H](CCCCN)NC(=O)[C@H](CCC(=O)O)NC(=O)[C@@H](NC(=O)[C@H](CCC(=O)O)NC(=O)[C@@H](NC(=O)[C@H](CCSC)NC(=O)[C@H](CCCCN)NC(=O)[C@H](CCCN=C(N)N)NC(=O)[C@H](CC(C)C)NC(=O)[C@H](CC(C)C)NC(=O)[C@H](CCC(N)=O)NC(=O)[C@H](Cc1c[nH]cn1)NC(=O)[C@@H]1CCCN1C(=O)[C@H](CC(C)C)NC(=O)[C@H](CC(=O)O)NC(=O)[C@@H](NC(=O)[C@H](CO)NC(=O)[C@@H](NC(=O)[C@@H]1CCCN1C(=O)[C@@H]1CCCN1C(=O)CNC(=O)[C@@H]1CCC(=O)N1)[C@@H](C)CC)[C@@H](C)CC)[C@@H](C)CC)[C@@H](C)CC)[C@@H](C)O)C(=O)O | 445 | 21.3 | 100 | 100 | 21
6 | CC[C@H](C)[C@H](NC(=O)[C@@H](NC(=O)[C@H](CC(=O)O)NC(=O)[C@H](CC(C)C)NC(=O)[C@H](CC(C)C)NC(=O)[C@H](CC(C)C)NC(=O)[C@H](CCCN=C(N)N)NC(=O)[C@H](CC(N)=O)NC(=O)[C@H](CC(N)=O)NC(=O)[C@H](C)NC(=O)[C@H](C)NC(=O)[C@H](CCC(N)=O)NC(=O)[C@H](CCC(N)=O)NC(=O)[C@H](CCCCN)NC(=O)[C@H](CCC(=O)O)NC(=O)[C@H](CCCCN)NC(=O)[C@H](CCC(=O)O)NC(=O)[C@H](CCC(N)=O)NC(=O)[C@H](CCCCN)NC(=O)[C@H](CCC(=O)O)NC(=O)[C@@H](NC(=O)[C@H](CCC(=O)O)NC(=O)[C@@H](NC(=O)[C@H](CCSC)NC(=O)[C@H](CCCCN)NC(=O)[C@H](CCCN=C(N)N)NC(=O)[C@H](CC(C)C)NC(=O)[C@H](CC(C)C)NC(=O)[C@H](Cc1c[nH]c2ccccc12)NC(=O)[C@H](Cc1ccccc1)NC(=O)[C@@H]1CCCN1C(=O)[C@H](CC(C)C)NC(=O)[C@H](CC(=O)O)NC(=O)[C@@H](NC(=O)[C@H](CO)NC(=O)[C@@H](NC(=O)[C@@H]1CCCN1C(=O)[C@@H]1CCCN1C(=O)CNC(=O)[C@@H]1CCC(=O)N1)[C@@H](C)CC)[C@@H](C)CC)[C@@H](C)CC)[C@@H](C)CC)[C@@H](C)O)C(=O)O | 94.6 | 4.7 | 100 | 95 | 20
7 | CC[C@H](C)[C@H](NC(=O)[C@@H](NC(=O)[C@H](CC(=O)O)NC(=O)[C@H](CC(C)C)NC(=O)[C@H](CC(C)C)NC(=O)[C@H](CC(C)C)NC(=O)[C@H](CCCN=C(N)N)NC(=O)[C@H](CC(N)=O)NC(=O)[C@H](CC(N)=O)NC(=O)[C@H](C)NC(=O)[C@H](C)NC(=O)[C@H](CCC(N)=O)NC(=O)[C@H](CCC(N)=O)NC(=O)[C@H](CCCCN)NC(=O)[C@H](CCC(=O)O)NC(=O)[C@H](CCCCN)NC(=O)[C@H](CCC(=O)O)NC(=O)[C@H](CCC(N)=O)NC(=O)[C@H](CCCCN)NC(=O)[C@H](CCC(=O)O)NC(=O)[C@@H](NC(=O)[C@H](CCC(=O)O)NC(=O)[C@@H](NC(=O)[C@H](CCSC)NC(=O)[C@H](CCCCN)NC(=O)[C@H](CCCN=C(N)N)NC(=O)[C@H](CC(C)C)NC(=O)[C@H](CC(C)C)NC(=O)[C@@H](NC(=O)[C@@H](NC(=O)[C@@H]1CCCN1C(=O)[C@H](CC(C)C)NC(=O)[C@H](CC(=O)O)NC(=O)[C@@H](NC(=O)[C@H](CO)NC(=O)[C@@H](NC(=O)[C@@H]1CCCN1C(=O)[C@@H]1CCCN1C(=O)CNC(=O)[C@@H]1CCC(=O)N1)[C@@H](C)CC)[C@@H](C)CC)[C@@H](C)CC)[C@@H](C)CC)[C@@H](C)CC)[C@@H](C)CC)[C@@H](C)O)C(=O)O | > 1000 | 14.8 | 4 | 73 | > 68
